15 compounds from patent US7514443B2, “Substituted pyrazolo[1,5-a]pyrimidines as inhibitors of metabotropic glutamate receptors” (Hoffmann-La Roche Inc., priority 2003, dated 2009) can be followed below.

One data set concerns the target T1, rat mGlu2 receptor (Rattus norvegicus, UniProt P31421).
T1 construct: expressed in transfected cells; membranes prepared from them
Kind of data set: [3H]-LY354740 binding on mGlu2 transfected CHO cell membranes. The note with it: inhibition of 10 nM [3H]-LY354740 binding, membranes of mGlu2 transfected CHO cells, room temperature, 1 hour; read-out: mGluR2 Ki. The source says:
[^3H]-LY354740 Binding on mGlu2 Transfected CHO Cell Membranes
Transfection and cell culture: cDNA encoding the rat mGlu2 receptor protein in pBluescript II was subcloned into the eukaryotic expression vector pcDNA I-amp from Invitrogen (NV Leek, The Netherlands). This vector construct (pcD1mGR2) was co-transfected with a psvNeo plasmid encoding the gene for neomycin resistance, into CHO cells by a modified calcium phosphate method described by Chen & Okayama (1988). The cells were maintained in Dulbecco's Modified Eagle medium with reduced L-glutamine (2 mM final concentration) and 10% dialyzed foetal calf serum from Gibco BRL (Basel, Switzerland). Selection was made in the presence of G-418 (1000 μg/ml final). Clones were identified by reverse transcription of 5 μg total RNA, follow by PCR using mGlu2 receptor specific primers 5′-[…]-3′ (SEQ ID NO: 1) and 5′-[…]-3′ (SEQ ID NO:2) in 60 mM Tris HCl (pH 10), 15 mM (NH4)2SO4, 2 mM MgCl2, 25 units/ml Taq Polymerase with 30 cycles annealing at 60° C. for 1 min., extension at 72° C. for 30 s, and 1 min. 95° C. denaturation.
Membrane preparation: Cells, cultured as above, were harvested and washed three times with cold PBS and frozen at −80° C. The pellet was resuspended in cold 20 mM HEPES-NaOH buffer containing 10 mM EDTA (pH 7.4), and homogenized with a polytron (Kinematica, AG, Littau, Switzerland) for 10 s at 10 000 rpm. After centrifugation for 30 min. at 4° C., the pellet was washed once with the same buffer, and once with cold 20 mM HEPES-NaOH buffer containing 0.1 mM EDTA, (pH 7.4). Protein content was measured using the Pierce method (Socochim, Lausanne, Switzerland) using bovine serum albumin as standard.
[^3H]-LY354740 binding: After thawing, the membranes were resuspended in cold 50 mM Tris-HCl buffer containing 2 mM MgCl2 and 2 mM CaCl2, (pH 7) (binding buffer). The final concentration of the membranes in the assays was 25 μg protein/ml. Inhibition experiments were performed with membranes incubated with 10 nM [^3H]-LY354740 at room temperature, for 1 hour, in the presence of various concentrations of the compound to be tested. Following the incubations, membranes were filtered onto Whatmann GF/C glass fiber filters and washed 5 times with cold binding buffer. Non specific binding was measured in the presence of 10 μM DCG IV. After transfer of the filters into plastic vials containing 10 ml of Ultima-gold scintillation fluid (Packard, Zürich, Switzerland), the radioactivity was measured by liquid scintillation in a Tri-Carb 2500 TR counter (Packard, Zürich, Switzerland).
Data analysis: The inhibition curves were fitted with a four parameter logistic equation giving IC50 values, and Hill coefficients.

T1 sequence (P31421 19-872): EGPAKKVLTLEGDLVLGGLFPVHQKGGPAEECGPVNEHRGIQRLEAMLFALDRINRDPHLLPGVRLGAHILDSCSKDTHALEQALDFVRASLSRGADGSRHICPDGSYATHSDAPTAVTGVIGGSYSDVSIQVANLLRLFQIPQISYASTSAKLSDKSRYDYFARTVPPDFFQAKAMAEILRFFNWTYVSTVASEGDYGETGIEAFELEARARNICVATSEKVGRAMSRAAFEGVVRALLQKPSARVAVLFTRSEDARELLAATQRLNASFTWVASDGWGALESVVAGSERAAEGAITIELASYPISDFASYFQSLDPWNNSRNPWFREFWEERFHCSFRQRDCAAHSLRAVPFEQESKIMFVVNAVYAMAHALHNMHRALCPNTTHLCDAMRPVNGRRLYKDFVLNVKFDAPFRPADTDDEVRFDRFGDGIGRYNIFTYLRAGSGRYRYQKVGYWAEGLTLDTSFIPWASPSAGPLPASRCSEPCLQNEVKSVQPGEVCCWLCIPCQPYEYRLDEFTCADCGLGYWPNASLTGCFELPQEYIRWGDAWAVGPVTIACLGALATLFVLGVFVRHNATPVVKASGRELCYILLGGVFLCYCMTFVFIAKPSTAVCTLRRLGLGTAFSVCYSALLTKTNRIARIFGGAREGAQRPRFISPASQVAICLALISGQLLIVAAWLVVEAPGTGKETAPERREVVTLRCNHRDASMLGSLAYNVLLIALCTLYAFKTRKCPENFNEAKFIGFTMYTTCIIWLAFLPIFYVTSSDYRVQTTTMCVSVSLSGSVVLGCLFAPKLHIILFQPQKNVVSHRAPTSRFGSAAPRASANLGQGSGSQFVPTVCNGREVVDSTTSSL

For the compound `Cc1cc(-c2cnn3c(C(F)(F)F)cc(-c4ccc(C(F)(F)F)c(F)c4)nc23)ccn1` [Example 4.35, 5-(3-Fluoro-4-trifluoromethyl-phenyl)-3-(2-methyl-pyridin-4-yl)-7-trifluoromethyl-pyrazolo[1,5-a]pyrimidine], the melting point was found to be 250 °C. On rat mGlu2 receptor, the inhibition constant Ki came out at 0.045 µM. For `Cc1cc(-c2cnn3c(C(F)(F)F)cc(-c4cccc(C(F)(F)F)c4)nc23)cc(C)n1` [Example 4.24, 5-(3-Trifluoromethyl-phenyl)-3-(2,6-dimethyl-pyridin-4-yl)-7-trifluoromethyl-pyrazolo[1,5-a]pyrimidine] the same measures were 236 °C and 0.043 µM. The like results for `FC(F)(F)c1cc(-c2ccc(Cl)c(Cl)c2)nc2c(-c3cccnc3)cnn12` [Example 4.9, 5-(3,4-Dichloro-phenyl)-3-pyridin-3-yl-7-trifluoromethyl-pyrazolo[1,5-a]pyrimidine] were, in that order, 224 °C and 0.047 µM. Take `N#Cc1cnn2c(C(F)(F)F)cc(-c3ccc(F)c(C(F)(F)F)c3)nc12` [Example 1.13, 5-(4-Fluoro-3-trifluoromethyl-phenyl)-7-trifluoromethyl-pyrazolo[1,5-a]pyrimidine-3-carbonitrile]: the melting point came to 204 °C. Moreover, on rat mGlu2 receptor, the inhibitory constant (Ki) was found to be 0.043 µM.

For the compound `Cc1cc(-c2cc(C(F)(F)F)n3nc(CC#N)c(C#N)c3n2)ccc1Cl` [Example 3.2, 5-(4-Chloro-3-methyl-phenyl)-2-cyanomethyl-7-trifluoromethyl-pyrazolo[1,5-a]pyrimidine-3-carbonitrile], the melting point is 238 °C. On rat mGlu2 receptor, the inhibition constant (Ki) was 0.076 µM.

As for `Cc1cc(-c2cc(C(F)(F)F)n3ncc(-c4cc[n+]([O-])c(C)c4)c3n2)ccc1Cl` [Example 7.1, 5-(4-Chloro-3-methyl-phenyl)-3-(2-methyl-1-oxy-pyridin-4-yl)-7-trifluoromethyl-pyrazolo[1,5-a]pyrimidine], the inhibition constant Ki on rat mGlu2 receptor stood at 0.0439 µM. As for `Cc1nn2c(C(F)(F)F)cc(-c3cccc(C(F)(F)F)c3)nc2c1C#N` [Example 2.2, 2-Methyl-5-(3-trifluoromethyl-phenyl)-7-trifluoromethyl-pyrazolo[1,5-a]pyrimidine-3-carbonitrile], the melting point amounted to 215 °C. Besides, the Ki at rat mGlu2 receptor came out at 0.072 µM. Regarding `N#Cc1c(-c2ccc(OCC(F)(F)F)c(C(F)(F)F)c2)nn2c(C(F)(F)F)ccnc12` [Example 1.19, 2-(4-Trifluoroethoxy-3-trifluoromethyl-phenyl)-4-trifluoromethyl-pyrazolo[1,5-a]pyrimidine-8-carbonitrile], the Ki on rat mGlu2 receptor came to 0.032 µM. Compound `FC(F)(F)c1ccc(-c2cc(C(F)(F)F)n3ncc(-c4ccccn4)c3n2)cc1` [Example 4.12, 5-(4-Trifluoromethyl-phenyl)-3-pyridin-2-yl-7-trifluoromethyl-pyrazolo[1,5-a]pyrimidine] yielded a melting point of 202 °C. For the compound `N#Cc1ncn2c(C(F)(F)F)cc(-c3ccc(Cl)c(Cl)c3)nc12` [Example 5.20, 5-(3,4-Dichloro-phenyl)-7-trifluoromethyl-imidazo[1,5-a]pyrimidine-8-carbonitrile], the melting point is 219 °C. Further, the Ki on rat mGlu2 receptor stood at 0.043 µM. For `FC(F)(F)COc1ccc(-c2cc(C(F)(F)F)n3ncc(-c4ccncc4)c3n2)cc1C(F)(F)F` [Example 4.43, 5-[4-(2,2,2-Trifluorothoxy)-3-trifluoromethyl-phenyl]-3-pyridin-4-yl-7-trifluoromethyl-pyrazolo[1,5-a]pyrimidine] the same measures were 247 °C and 0.048 µM. For `Cc1nn2c(C(F)(F)F)cc(-c3ccc(F)c(Cl)c3)nc2c1C#N` [Example 2.4, 5-(3-Chloro-4-fluoro-phenyl)-2-methyl-7-trifluoromethyl-pyrazolo[1,5-a]pyrimidine-3-carbonitrile], the melting point worked out at 196 °C. The same measure, in the same setting: the result for `CCOc1cc(-c2cc(C(F)(F)F)n3cnc(-c4ccnc(C)c4)c3n2)ccc1C(F)(F)F` [Example 8.31, 2-(3-Ethoxy-4-trifluoromethyl-phenyl)-8-(2-methyl-pyridin-4-yl)-4-trifluoromethyl-imidazo[1,5-a]pyrimidine] reads 177 °C. Still for that read-out and setting: the result for `Cc1cc(-c2cnn3c(C(F)(F)F)cc(-c4ccc(C(F)(F)F)c(OCC(F)(F)F)c4)nc23)ccn1` [Example 4.52, 3-(2-Methyl-pyridin-4-yl)-5-[3-(2,2,2-trifluoro-ethoxy)-4-trifluoromethyl-phenyl]-7-trifluoromethyl-pyrazolo[1,5-a]pyrimidine] reads 201 °C; that for `CCOc1cc(-c2cc(C(F)(F)F)n3ncc(-c4ccncc4)c3n2)ccc1C(F)(F)F` [Example 4.47, 5-(3-Ethoxy-4-trifluoromethyl-phenyl)-3-pyridin-4-yl-7-trifluoromethyl-pyrazolo[1,5-a]pyrimidine], 251 °C.

A word on the melting point: it is the temperature, or range, at which the solid turns liquid. As usually defined, the Ki is the equilibrium dissociation constant of an inhibitor or competing ligand from its target.
